{
  "source": "patent US9023894B2",
  "about": "“Synergistic combinations comprising a renin inhibitor for cardiovascular diseases” (priority 2000, dated 2015)",
  "key": {"[1]": {"tested_on": "SHR with endothelial dysfunction", "assay": "Endothelial dysfunction test: SHR treated with the NO synthesis inhibitor L-NAME for 12 weeks", "assay_type": "in vivo, rat", "settings": "for proteinuria / kidney lesions: low doses; for proteinuria / survival rates: drugs in drinking fluid; for kidney lesions: kidney sections; for survival rates: low, non-blood pressure reducing doses", "experimental": "Male 20-24 week-old SHR, purchased from RCC Ldt (Fullingsdorf, Switzerland), are maintained in a temperature- and light-controlled room with free access to rat chow (Nafag 9331, Gossau, Switzerland) and tap water. The experiment is performed in accordance with the NIH guidelines and approved by the Canton Veterinary office (Bew 161, Kantonales Veterinäramt, Liestal, Switzerland). All rats are treated with the NO synthesis inhibitor L-NAME (Sigma Chemicals) administered in drinking water (50 mg/l) for 12 weeks. The average daily dose of L-NAME calculated from the water consumed was 2.5 mg/kg/d (range 2.1-2.7).\nThe rats can be divided into 5 groups: group 1, control (n=40); Group 2, the compound of formula (I) in form of the hemi-fumarate (ren1; n=40); Group 3, enalapril (ena1; n=30); Group 4, a combination (ena1ren1) of enalapril and the compound of formula (I) in form of the hemi-fumarate; (n=30) and Group 5, the compound of formula (I) in form of the hemi-fumarate (ren2—higher dose; n=30). The drugs are administered in drinking fluid.\nBody weight is measured every week. Systolic blood pressure and heart rate are recorded by tail cuff plethysmography 3 and 2 weeks before starting the study and at 2 weeks after drug administration. Urine is collected over a 24 hour period from rats kept in individual (metabolic) cages the week before starting treatment and at weeks 4 and 12 for volume measurement and protein, creatinine, sodium and potassium determination using standard laboratory methods. At the same time points, blood samples are withdrawn from the retro-orbital plexus (maximum 1 ml) for creatinine, Na^+ and K^+ assays.\nTen rats from each group are sacrificed at 4 weeks for collection of kidney and heart for morphological analysis. The remaining rats are sacrificed at 12 weeks. Cardiac and kidney weight is recorded. Terminal blood sampling is performed in 5% EDTA at 4 (morphometry study) and 12 (end of the study) weeks for aldosterone, determination by radioimmunoassay using a DPC coat-a-count aldosterone-RIA kit (Bühlmann, Switzerland).\nAll data are expressed as mean±SEM. Statistical analysis is performed using a one-way ANOVA, followed by a Duncan's multiple range test and a Newman-Keuls test, 7 for comparison between the different groups. Results with a probability value of less than 0.05 are deemed statistically significant."}, "normotensive rats": {"tested_on": "normotensive rats", "settings": "Ang II at 1 mg/kg, after treatment; cited from earlier work"}},
  "note": "“Also recorded” adds a separate entry of the source.",
  "data": [
    {"smiles": "COCCCOc1cc(C[C@@H](C[C@H](N)[C@@H](O)C[C@H](C(=O)NCC(C)(C)C(N)=O)C(C)C)C(C)C)ccc1OC", "note": "[2(S),4(S),5(S),7(S)—N-(3-amino-2,2-dimethyl-3-oxopropyl)-2,7-di(1-methylethyl)-4-hydroxy-5-amino-8-[4-methoxy-3-(3-methoxy-propoxy)phenyl]-octanamide]", "values": [
      {"measurement": "proteinuria", "setting": "[1]", "result": "no decrease in proteinuria"},
      {"measurement": "kidney lesions", "setting": "[1]", "result": "no reduction of kidney lesions"},
      {"measurement": "survival rates", "setting": "[1]", "result": "significant improvements in survival rates"},
      {"measurement": "survival rates", "setting": "[1]; listed as renin inhibitor of formula (I)", "result": "improved survival"},
      {"measurement": "pressor effect of Ang II", "setting": "normotensive rats", "result": "can be reducted"}
    ]},
    {"smiles": "CCOC(=O)[C@H](CCc1ccccc1)N[C@@H](C)C(=O)N1CCC[C@H]1C(=O)O", "note": "[enalapril, reference compound]", "values": [
      {"measurement": "proteinuria", "setting": "[1]", "result": "no decrease in proteinuria"},
      {"measurement": "kidney lesions", "setting": "[1]", "result": "no reduction of kidney lesions"},
      {"measurement": "survival rates", "setting": "[1]", "result": "improved survival; also recorded: significant improvements in survival rates"}
    ]}
  ]
}
